Here are results for 13 molecules from ChEMBL document CHEMBL1201862, “PubChem BioAssay data set” (2004).

Among the test systems are A549; ACHN; CAKI-1; DLD-1; HL-60; NCI-H460; NCI-H522; RPMI-8226; SK-MEL-2; SK-OV-3; TK-10; U-251; OVCAR-5; RXF 393; SK-MEL-5; UACC-257; BT-549; MCF7; SF-268.
Test in all cases: inhibition of tumour cell growth, NCI panel, 48 h

SMILES strings stand for the structures.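 Dose response: 5 concentrations. Exposure: 48 h. Format: 96-well plates. Endpoint: linear interpolation; highest concentration if not reached. GI50 marks 50% less growth.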 The source made the active and inactive calls. Rule as the data show it: active = GI50 up to about 1.1 µM and inactive = higher. Some results are limits rather than exact numbers.

For the molecule `Oc1cc(-c2ccc3c(c2)OCO3)nc2cc3c(cc12)OCO3`, the GI50 is 42.9 µM (inactive) with A549; 46.1 µM (inactive) in the test on ACHN; 64.4 µM (inactive) in the test with CAKI-1; 55.8 µM (inactive) with DLD-1; 24.5 µM (inactive) in the test with HL-60; 40.2 µM (inactive) in the test on NCI-H460. In addition, the GI50 is 40.2 µM (inactive) in the test on NCI-H522; 37.5 µM (inactive) in the test on RPMI-8226; 31.1 µM (inactive) in the test on SK-MEL-2; 30.9 µM (inactive) in the test on SK-OV-3; 63.8 µM (inactive) with TK-10; 30.5 µM (inactive) with U-251.

For `CN(C)CCCN1CCc2c([nH]c3ccccc23)C1c1cccnc1` (centres undefined), the GI50 in the test with A549, in the test on ACHN, in the test on CAKI-1, with DLD-1, in the test with HL-60 and with NCI-H460 was > 100 µM (inactive) each time. Besides, the GI50 with NCI-H522, with OVCAR-5, in the test with RPMI-8226, in the test with RXF 393, in the test with SK-MEL-2 and in the test with SK-MEL-5 was > 100 µM (inactive) each time. Besides, the GI50 in the test on SK-OV-3, with TK-10, in the test on U-251 and in the test with UACC-257 was > 100 µM (inactive) throughout.

For `Cc1ccc(C(=O)N2CCN(C(=O)c3ccc(C)cc3)c3ccccc32)cc1`, the GI50 was 7.48 µM (inactive) in the test on A549; 9.59 µM (inactive) in the test with ACHN; > 100 µM (inactive) with BT-549; 7 µM (inactive) in the test on CAKI-1; 4.23 µM (inactive) with DLD-1; 0.767 µM (active) in the test with HL-60. Further, the GI50 in the test on MCF7 is 2.48 µM (inactive); in the test on NCI-H460, 4.14 µM (inactive); with NCI-H522 it was 1.85 µM (inactive); with OVCAR-5 it was > 63.7 µM (inactive); in the test with RPMI-8226, 3.03 µM (inactive); in the test on RXF 393, 2.24 µM (inactive). In addition, the GI50 in the test on SF-268 is 6.85 µM (inactive); in the test with SK-MEL-2 it was 1.94 µM (inactive); in the test on SK-MEL-5, 3.15 µM (inactive); in the test with SK-OV-3, 2.89 µM (inactive); in the test on TK-10, 10 µM (inactive); in the test on U-251 it was 1.9 µM (inactive). In addition, the GI50 in the test with UACC-257 is 4.56 µM (inactive).

As to `CCCCN(CCCC)C(=Nc1ccccc1)N(CCCC)CCCC`, the GI50 in the test on A549 was 7.62 µM (inactive); with ACHN, 3.55 µM (inactive); in the test with DLD-1, 6.38 µM (inactive); in the test with HL-60, 1.79 µM (inactive); in the test on NCI-H460, 3.34 µM (inactive); with NCI-H522, 2.17 µM (inactive). For the same molecule, the GI50 with OVCAR-5 was 5.78 µM (inactive); in the test with RPMI-8226 it was 1.8 µM (inactive); in the test with RXF 393, 5.02 µM (inactive); in the test with SF-268, 11.2 µM (inactive); with SK-MEL-2, 6.64 µM (inactive); in the test on SK-OV-3, 8.43 µM (inactive). The GI50 in the test with TK-10 was 10.1 µM (inactive); in the test on U-251, 1.95 µM (inactive); with UACC-257, 7.41 µM (inactive).

As to `Cc1ccc(C(=O)NCCN(C)C)c2nc3ccccc3cc12`, the GI50 is 0.92 µM (active) in the test on A549; 0.45 µM (active) with ACHN; 1.79 µM (inactive) in the test with CAKI-1; 1.32 µM (inactive) in the test on DLD-1; 1.42 µM (inactive) in the test on HL-60; 0.34 µM (active) in the test with NCI-H460. The GI50 was 1.94 µM (inactive) in the test on OVCAR-5; 4.24 µM (inactive) in the test with RPMI-8226; 1.29 µM (inactive) in the test on RXF 393; 2.53 µM (inactive) in the test on SK-MEL-2; 1.52 µM (inactive) in the test with SK-MEL-5; 30.3 µM (inactive) in the test with SK-OV-3. Also, the GI50 with TK-10 was 1.54 µM (inactive); with U-251, 0.644 µM (active); in the test on UACC-257, 1.3 µM (inactive).

Take `N#C/C(=C1\SCC(=O)N1c1ccccc1)c1nc2ccccc2[nH]1`: the GI50 with A549, in the test on ACHN, in the test on CAKI-1, in the test on DLD-1, in the test on HL-60 and with NCI-H460 was > 100 µM (inactive) in each case. In addition, the GI50 in the test with NCI-H522, with OVCAR-5, with RXF 393, with SF-268, with SK-MEL-2 and with SK-MEL-5 was > 100 µM (inactive) throughout. Besides, the GI50 with SK-OV-3, in the test with TK-10, with U-251 and with UACC-257 was > 100 µM (inactive) each time.

As for `COC(=O)N/N=C(\C(=O)Nc1cccc([N+](=O)[O-])c1)c1nc2ccc([N+](=O)[O-])cc2nc1O`, the GI50 with A549 is 42.9 µM (inactive); with ACHN, 24.7 µM (inactive); with DLD-1, > 100 µM (inactive); in the test on HL-60, > 100 µM (inactive); in the test on NCI-H460, 57.5 µM (inactive); in the test with NCI-H522, 3.47 µM (inactive). Besides, the GI50 in the test on OVCAR-5 was > 100 µM (inactive); in the test with RPMI-8226, 32.7 µM (inactive); with RXF 393, > 100 µM (inactive); in the test on SF-268, 0.38 µM (active); with SK-MEL-5, 34 µM (inactive); in the test on SK-OV-3 it was > 100 µM (inactive). Also, the GI50 in the test on TK-10 and in the test on UACC-257 was > 100 µM (inactive) each time.

For `O=C(O)CNS(=O)(=O)c1ccc(NC(=O)CI)cc1`, the GI50 is 91.2 µM (inactive) in the test with A549; 52 µM (inactive) in the test on ACHN; 40.7 µM (inactive) in the test on CAKI-1; 26.9 µM (inactive) in the test with DLD-1; 18.2 µM (inactive) in the test on HL-60; 25.7 µM (inactive) in the test with NCI-H460. Moreover, the GI50 in the test on NCI-H522 is 2.16 µM (inactive); in the test with OVCAR-5, 27.6 µM (inactive); with RPMI-8226, 15.7 µM (inactive); in the test with RXF 393, 15.5 µM (inactive); with SF-268, 18.8 µM (inactive); in the test with SK-MEL-2 it was 23.3 µM (inactive). Also, the GI50 is 22.2 µM (inactive) with SK-MEL-5; 33.8 µM (inactive) with SK-OV-3; 63 µM (inactive) with TK-10; 19.1 µM (inactive) with U-251; 42.5 µM (inactive) in the test on UACC-257.

`COP(=O)(OC)C(NC(=O)C(F)(F)F)(c1ccccc1)C(F)(F)F` (centres undefined): the GI50 with A549, in the test with ACHN, with CAKI-1, in the test with DLD-1, in the test on HL-60 and with NCI-H460 was > 100 µM (inactive) each time. Besides, the GI50 in the test with NCI-H522, in the test on OVCAR-5, in the test on RPMI-8226, with RXF 393, in the test with SF-268 and in the test on SK-MEL-2 was > 100 µM (inactive) throughout. Besides, the GI50 in the test on SK-MEL-5, with SK-OV-3, with TK-10, with U-251 and in the test with UACC-257 was > 100 µM (inactive) in each case.

With `Cc1ccc2c(ccc(/C=C\c3cc(C)c4cccnc4c3O)[n+]2C)c1`, the GI50 with A549 is 8.43 µM (inactive); in the test with ACHN, 5.65 µM (inactive); with CAKI-1, 5.53 µM (inactive); in the test on DLD-1 it was 0.849 µM (active); in the test with HL-60, 0.454 µM (active); in the test with NCI-H460, 0.439 µM (active). Besides, the GI50 in the test on NCI-H522 is 4.34 µM (inactive); in the test with OVCAR-5 it was 22 µM (inactive); in the test with RPMI-8226, 0.401 µM (active); in the test on SF-268, 9.25 µM (inactive); in the test with SK-MEL-5, 0.372 µM (active); in the test with U-251 it was 1.75 µM (inactive). In addition, the GI50 in the test with UACC-257 was 11.7 µM (inactive).

`COC(=O)C1=C(C[S+]([O-])c2ccc([N+](=O)[O-])cc2[N+](=O)[O-])C2C=CC1C2` (centres undefined): the GI50 in the test on A549 was 57 µM (inactive); with ACHN it was 19.8 µM (inactive); in the test with CAKI-1, 21.1 µM (inactive); in the test with DLD-1, 19.1 µM (inactive); with HL-60, 16.2 µM (inactive); in the test with NCI-H460, 35.9 µM (inactive). The GI50 with NCI-H522 was 13.8 µM (inactive); in the test with OVCAR-5, > 100 µM (inactive); with RPMI-8226 it was 77.1 µM (inactive); with RXF 393, 26.2 µM (inactive); with SF-268 it was 41 µM (inactive); in the test with SK-MEL-2, 41.4 µM (inactive). In addition, the GI50 is 63.2 µM (inactive) with SK-MEL-5; 38.3 µM (inactive) in the test with SK-OV-3; 23.4 µM (inactive) in the test on TK-10; 20 µM (inactive) in the test with U-251; 30.2 µM (inactive) in the test on UACC-257.

With `CC(=O)NC1=C(Nc2ccc(C)cc2)C(=O)c2ccccc2C1=O`, the GI50 in the test on A549 was 14.3 µM (inactive); in the test with ACHN, 17.9 µM (inactive); in the test on CAKI-1 it was 43.7 µM (inactive); in the test on DLD-1, 19.7 µM (inactive); in the test on HL-60 it was 10.2 µM (inactive); in the test with NCI-H460, 12.1 µM (inactive). Besides, the GI50 with OVCAR-5 is 13.3 µM (inactive); in the test with RPMI-8226, 11.7 µM (inactive); in the test with RXF 393, 23.5 µM (inactive); with SF-268, 26.9 µM (inactive); in the test on SK-MEL-2, 21.6 µM (inactive); in the test on SK-MEL-5 it was 10.2 µM (inactive). Also, the GI50 is > 75 µM (inactive) in the test on SK-OV-3, > 75 µM (inactive) with TK-10, 29 µM (inactive) with U-251 and 18 µM (inactive) with UACC-257.

For `CC(C)(O)C(O)COc1c2c(cc3oc(=O)ccc13)OCO2` (centres undefined), the GI50 with A549, in the test with ACHN, in the test with CAKI-1, in the test with DLD-1, in the test on HL-60 and with NCI-H460 was > 100 µM (inactive) throughout. Moreover, the GI50 with NCI-H522, with OVCAR-5, in the test with RPMI-8226, with RXF 393, in the test on SF-268 and in the test on SK-MEL-2 was > 100 µM (inactive) each time. Further, the GI50 with SK-MEL-5, in the test on SK-OV-3, in the test on TK-10, in the test on U-251 and in the test with UACC-257 was > 100 µM (inactive) in each case.
